Species on record: Rattus norvegicus
Test: Open TG-GATES - Regimen: Single
Format: toxicity, organism-based, Sprague-Dawley
Parameters: regimen Single, gender Male, age 6 weeks
Settings: in vivo, po, 1000 mg/kg, route gavage, dose level High; for APTT / Bas / Eos / Fbg / Hb / Ht / Lym / MCH / MCHC / MCV / Mono / Neu / PT / Plat / RBC / Ret / WBC: tissue Blood; for KIDNEY_L / KIDNEY_R / KIDNEY_TOTAL: tissue Kidney; for LIVER: tissue Liver; for A/G / ALP / ALT / AST / BUN / CRE / Ca / Cl / DBIL / GLC / IP / K / LDH / Na / PL / RALB / TBIL / TC / TG / TP / gamma-GTP: tissue Plasma

COC1=CC(=O)C[C@@H](C)[C@]12Oc1c(Cl)c(OC)cc(OC)c1C2=O [GRISEOFULVIN]
TERMINAL_BW (3 h): 213.3 g
APTT (3 h): 19.4 s
Bas (3 h): 0%
Eos (3 h): 1%
Fbg (3 h): 212.2 mg/dL
Hb (3 h): 12.2 g/dL
Ht (3 h): 35.6%
Lym (3 h): 78.4%
MCH (3 h): 21.9 pg
MCHC (3 h): 34.3%
MCV (3 h): 63.7 fL
Mono (3 h): 3%
Neu (3 h): 17%
PT (3 h): 13.2 s
Plat (3 h): 124.4 x10_4/uL
RBC (3 h): 557.4 x10_4/ul
Ret (3 h): 8.3%
WBC (3 h): 88.7 x10_2/uL
KIDNEY_L (3 h): 0.9 g
KIDNEY_R (3 h): 0.9 g
KIDNEY_TOTAL (3 h): 1.9 g
LIVER (3 h): 9.6 g
A/G (3 h): 1.9
ALP (3 h): 900 IU/L
ALT (3 h): 36 IU/L
AST (3 h): 66.6 IU/L
BUN (3 h): 10.6 mg/dL
CRE (3 h): 0.3 mg/dL
Ca (3 h): 11 mg/dL
Cl (3 h): 103.6 meq/L
DBIL (3 h): 0.2 mg/dL
GLC (3 h): 184.2 mg/dL
IP (3 h): 8.2 mg/dL
K (3 h): 4 meq/L
LDH (3 h): 128.4 IU/L
Na (3 h): 140.4 meq/L
PL (3 h): 179.2 mg/dL
RALB (3 h): 3.4 g/dL
TBIL (3 h): 0.3 mg/dL
TC (3 h): 86 mg/dL
TG (3 h): 122.6 mg/dL
TP (3 h): 5.2 g/dL
gamma-GTP (3 h): 1.6 IU/L
TERMINAL_BW (6 h): 211 g
APTT (6 h): 18.5 s
Bas (6 h): 0%
Eos (6 h): 1%
Fbg (6 h): 211.2 mg/dL
Hb (6 h): 12.7 g/dL
Ht (6 h): 37.4%
Lym (6 h): 75.6%
MCH (6 h): 21.9 pg
MCHC (6 h): 34%
MCV (6 h): 64.3 fL
Mono (6 h): 4%
Neu (6 h): 19%
PT (6 h): 13.3 s
Plat (6 h): 123.4 x10_4/uL
RBC (6 h): 582 x10_4/ul
Ret (6 h): 7.7%
WBC (6 h): 90 x10_2/uL
KIDNEY_L (6 h): 1 g
KIDNEY_R (6 h): 1 g
KIDNEY_TOTAL (6 h): 2 g
LIVER (6 h): 9.2 g
A/G (6 h): 1.7
ALP (6 h): 994.4 IU/L
ALT (6 h): 34 IU/L
AST (6 h): 66.8 IU/L
BUN (6 h): 10.4 mg/dL
CRE (6 h): 0.3 mg/dL
Ca (6 h): 10.8 mg/dL
Cl (6 h): 103.2 meq/L
DBIL (6 h): 0.092 mg/dL
GLC (6 h): 204 mg/dL
IP (6 h): 9.1 mg/dL
K (6 h): 4.1 meq/L
LDH (6 h): 144.2 IU/L
Na (6 h): 141 meq/L
PL (6 h): 154.6 mg/dL
RALB (6 h): 3.3 g/dL
TBIL (6 h): 0.2 mg/dL
TC (6 h): 82.8 mg/dL
TG (6 h): 45 mg/dL
TP (6 h): 5.3 g/dL
gamma-GTP (6 h): 1.4 IU/L
TERMINAL_BW (9 h): 207.4 g
APTT (9 h): 17.9 s
Bas (9 h): 0%
Eos (9 h): 0.8%
Fbg (9 h): 202.4 mg/dL
Hb (9 h): 12.4 g/dL
Ht (9 h): 36.1%
Lym (9 h): 75.2%
MCH (9 h): 21.5 pg
MCHC (9 h): 34.3%
MCV (9 h): 62.8 fL
Mono (9 h): 2.2%
Neu (9 h): 21.6%
PT (9 h): 13.9 s
Plat (9 h): 113.3 x10_4/uL
RBC (9 h): 575.8 x10_4/ul
Ret (9 h): 7.7%
WBC (9 h): 71.8 x10_2/uL
KIDNEY_L (9 h): 0.9 g
KIDNEY_R (9 h): 1 g
KIDNEY_TOTAL (9 h): 1.9 g
LIVER (9 h): 8.4 g
A/G (9 h): 1.8
ALP (9 h): 1031 IU/L
ALT (9 h): 31.4 IU/L
AST (9 h): 67.6 IU/L
BUN (9 h): 10.8 mg/dL
CRE (9 h): 0.3 mg/dL
Ca (9 h): 10.8 mg/dL
Cl (9 h): 104.4 meq/L
DBIL (9 h): 0.07 mg/dL
GLC (9 h): 186.4 mg/dL
IP (9 h): 10.1 mg/dL
K (9 h): 3.9 meq/L
LDH (9 h): 153.2 IU/L
Na (9 h): 142.2 meq/L
PL (9 h): 134.2 mg/dL
RALB (9 h): 3.5 g/dL
TBIL (9 h): 0.1 mg/dL
TC (9 h): 74.2 mg/dL
TG (9 h): 26.8 mg/dL
TP (9 h): 5.5 g/dL
gamma-GTP (9 h): 1.2 IU/L
TERMINAL_BW (24 h): 222.6 g
APTT (24 h): 18.9 s
Bas (24 h): 0%
Eos (24 h): 0.8%
Fbg (24 h): 206.4 mg/dL
Hb (24 h): 13.1 g/dL
Ht (24 h): 39.3%
Lym (24 h): 79.2%
MCH (24 h): 21.9 pg
MCHC (24 h): 33.4%
MCV (24 h): 65.5 fL
Mono (24 h): 2.6%
Neu (24 h): 16.8%
PT (24 h): 13 s
Plat (24 h): 123.4 x10_4/uL
RBC (24 h): 600.4 x10_4/ul
Ret (24 h): 8%
WBC (24 h): 97.5 x10_2/uL
KIDNEY_L (24 h): 1 g
KIDNEY_R (24 h): 1 g
KIDNEY_TOTAL (24 h): 2 g
LIVER (24 h): 10.5 g
A/G (24 h): 1.6
ALP (24 h): 1124.8 IU/L
ALT (24 h): 39.8 IU/L
AST (24 h): 69.8 IU/L
BUN (24 h): 13.2 mg/dL
CRE (24 h): 0.4 mg/dL
Ca (24 h): 10.9 mg/dL
Cl (24 h): 104 meq/L
DBIL (24 h): 0.1 mg/dL
GLC (24 h): 212.4 mg/dL
IP (24 h): 8.5 mg/dL
K (24 h): 4 meq/L
LDH (24 h): 148.6 IU/L
Na (24 h): 141 meq/L
PL (24 h): 153 mg/dL
RALB (24 h): 3.3 g/dL
TBIL (24 h): 0.2 mg/dL
TC (24 h): 88 mg/dL
TG (24 h): 88.4 mg/dL
TP (24 h): 5.4 g/dL
gamma-GTP (24 h): 1.4 IU/L

— ChEMBL document CHEMBL3885861, “Open TG-GATES”
